SMILES strings stand for the structures. Read-outs that look alike come from different tables or passages of the source. A value given as a limit tells only on which side of the number the result lay.

For data set [1] the following is noted: 13-membered ring.
Data set [2] has as its target T1, a4b7 integrin interaction with MadCAM-1 (Homo sapiens, UniProt P13612+P26010).
T1 construct: capture of a4b7 integrin expressing cells, RPMI8866; endogenous in cells; host or cells: RPMI8866
T1 sequence (P13612 34-1032): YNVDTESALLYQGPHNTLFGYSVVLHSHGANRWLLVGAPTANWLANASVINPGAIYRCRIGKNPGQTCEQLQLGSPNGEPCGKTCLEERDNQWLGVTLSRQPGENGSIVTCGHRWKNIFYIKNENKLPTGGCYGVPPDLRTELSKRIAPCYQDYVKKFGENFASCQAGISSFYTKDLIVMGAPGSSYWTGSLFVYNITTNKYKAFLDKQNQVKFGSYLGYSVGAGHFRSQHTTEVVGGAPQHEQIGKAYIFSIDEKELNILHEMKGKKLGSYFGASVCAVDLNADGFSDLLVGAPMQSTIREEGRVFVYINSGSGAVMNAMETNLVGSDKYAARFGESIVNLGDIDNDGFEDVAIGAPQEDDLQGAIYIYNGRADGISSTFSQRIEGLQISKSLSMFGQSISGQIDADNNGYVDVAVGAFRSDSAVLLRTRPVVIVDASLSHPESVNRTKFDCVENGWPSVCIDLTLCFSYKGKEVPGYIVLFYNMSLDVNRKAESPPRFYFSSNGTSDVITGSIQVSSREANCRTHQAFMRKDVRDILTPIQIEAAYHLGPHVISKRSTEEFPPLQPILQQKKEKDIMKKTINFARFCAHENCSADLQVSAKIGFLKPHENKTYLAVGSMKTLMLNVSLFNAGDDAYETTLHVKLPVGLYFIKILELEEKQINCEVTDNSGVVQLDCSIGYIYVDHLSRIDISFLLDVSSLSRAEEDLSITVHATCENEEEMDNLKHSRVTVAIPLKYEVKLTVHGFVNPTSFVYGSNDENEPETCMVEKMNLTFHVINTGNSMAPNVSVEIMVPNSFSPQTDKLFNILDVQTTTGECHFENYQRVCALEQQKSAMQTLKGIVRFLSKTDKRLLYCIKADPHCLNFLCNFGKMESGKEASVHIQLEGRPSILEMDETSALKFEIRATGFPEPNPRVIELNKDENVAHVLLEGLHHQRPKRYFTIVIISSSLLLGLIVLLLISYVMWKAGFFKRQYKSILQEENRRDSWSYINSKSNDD
T1 sequence (P26010 20-798): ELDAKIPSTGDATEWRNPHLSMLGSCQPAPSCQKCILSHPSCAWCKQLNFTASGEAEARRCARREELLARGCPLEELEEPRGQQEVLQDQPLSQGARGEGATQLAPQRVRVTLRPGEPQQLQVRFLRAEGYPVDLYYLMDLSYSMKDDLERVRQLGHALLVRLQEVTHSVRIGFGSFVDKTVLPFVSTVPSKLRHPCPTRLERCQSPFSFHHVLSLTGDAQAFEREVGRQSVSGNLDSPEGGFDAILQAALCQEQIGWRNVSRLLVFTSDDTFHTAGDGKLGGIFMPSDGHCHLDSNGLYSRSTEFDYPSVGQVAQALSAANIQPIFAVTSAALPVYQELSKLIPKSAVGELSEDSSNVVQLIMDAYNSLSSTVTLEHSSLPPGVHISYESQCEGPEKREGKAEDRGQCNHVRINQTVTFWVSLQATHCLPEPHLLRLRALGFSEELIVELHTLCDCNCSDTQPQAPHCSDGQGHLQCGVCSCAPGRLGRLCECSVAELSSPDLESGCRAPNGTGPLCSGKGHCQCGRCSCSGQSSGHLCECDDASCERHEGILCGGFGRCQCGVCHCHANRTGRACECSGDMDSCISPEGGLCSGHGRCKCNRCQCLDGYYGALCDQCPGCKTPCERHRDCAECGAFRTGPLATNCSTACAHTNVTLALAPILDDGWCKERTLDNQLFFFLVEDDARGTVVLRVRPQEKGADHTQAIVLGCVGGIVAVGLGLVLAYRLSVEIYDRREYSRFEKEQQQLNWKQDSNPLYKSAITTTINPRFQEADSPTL
Put plainly: a4b7 Cell Capture Assay (RPMI8866 cells on MAdCAM-1 Fc coated plates). In kind it is cell-based. The note with it: 50% human serum, 1 mM MgCl2, 1 hour incubation, CellTiter-Glo luminescence, read-out: a4B7 cell capture assay RMPI8866-MadCAM EC50. A digest of the protocol:
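RPMI8866 cells (1.0×10^6 cells/mL) in 1 mM MgCl2, 25 mM HEPES, 50% human serum were added to plates coated with human MAdCAM-1–IgG1 Fc (1.0 μg/mL) and exposed to compound (9-point, 0.08–1000 nM, 0.1% DMSO) for 1 h at 37 °C. Bound cells were read by CellTiter-Glo luminescence. IC50 came from 4-parameter fit of normalized % inhibition.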
Background: ATP-based viability assays read luminescence as a measure of living cells.

As to `CCOC(=O)C[C@@H]1NC(=O)C(=O)c2cccc(c2)Cc2cccc(C)c2-c2cc(C)c(F)c1c2`, the ring closure, isolated yield in data set [1] (from CCOC(=O)C[C@H](N)c1cc(-c2c(C)cccc2Cc2cccc(C(=O)C(=O)O)c2)cc(C)c1F, amide bond, TCFH/NMI, MeCN, 139.3 mM, 25.0 °C, 3.0 h) stood at 32.5%.

For `CCOC(=O)C[C@@H]1NC(=O)C(n2c(=O)c3ccncc3n(C)c2=O)c2cc(ccc2F)Oc2cccc(C)c2-c2cc(C)c(F)c1c2` (stereo partly shown), the ring closure, isolated yield in data set [1] (from CCOC(=O)C[C@H](NC(=O)C(c1cc(Br)ccc1F)n1c(=O)c2ccncc2n(C)c1=O)c1cc(-c2c(C)cccc2O)cc(C)c1F, ether bond, CuI/K2CO3/(1R,2R)-N1,N2-dimethylcyclohexane-1,2-diamine, 1,4-dioxane, 50.0 mM, 100.0 °C, 2.0 h) came to 82.6%.

With `CCOC(=O)C[C@@H]1NC(=O)C(n2cc(CCN3CC(F)(F)C3)c(C(F)(F)F)cc2=O)c2cc(ccc2F)Oc2cccc(C)c2-c2cc(C)c(F)c1c2` (stereo partly shown), in data set [1] (from CCOC(=O)C[C@H](NC(=O)C(c1cc(Br)ccc1F)n1cc(CCN2CC(F)(F)C2)c(C(F)(F)F)cc1=O)c1cc(-c2c(C)cccc2O)cc(C)c1F, ether bond, CuI/(1R,2R)-N1,N2-dimethylcyclohexane-1,2-diamine/K2CO3, 1,4-dioxane, 26.0 mM, 100.0 °C, 16.0 h), the ring closure, isolated yield was determined as 50.3%.

On to `CCOC(=O)C[C@@H]1NC(=O)C(n2cc(CCN3CC(F)C3)c(C(F)(F)F)cc2=O)c2cc(cc(C(F)(F)F)c2)Oc2cccc(C)c2-c2cc1c(F)c(C(F)(F)F)c2` (stereo partly shown), for which, in data set [1] (from CCOC(=O)C[C@H](NC(=O)C(c1cc(Br)cc(C(F)(F)F)c1)n1cc(CCN2CC(F)C2)c(C(F)(F)F)cc1=O)c1cc(-c2c(C)cccc2O)cc(C(F)(F)F)c1F, ether bond, CuI/(1R,2R)-N1,N2-dimethylcyclohexane-1,2-diamine/K2CO3, dioxane, 15.0 mM, 100.0 °C, 2.0 h), the ring closure, isolated yield was 64.3%.

Take `CCOC(=O)C[C@@H]1NC(=O)C(n2cc(CCN3CC(F)C3)c(C(F)(F)F)cc2=O)c2cc(ccc2C)Oc2cccc(C)c2-c2cc(C)c(F)c1c2` (stereo partly shown): the ring closure, isolated yield in data set [1] (from CCOC(=O)C[C@H](NC(=O)C(c1cc(Br)ccc1C)n1cc(CCN2CC(F)C2)c(C(F)(F)F)cc1=O)c1cc(-c2c(C)cccc2O)cc(C)c1F, ether bond, CuI/K2CO3/(1R,2R)-N1,N2-dimethylcyclohexane-1,2-diamine, 1,4-dioxane, 100.0 °C) was found to be 88.9%.

Regarding `CCOC(=O)C[C@@H]1NC(=O)C(n2cc(CCN3CC(F)C3)c(C(F)(F)F)cc2=O)c2cc(ccc2F)Oc2nn(C)cc2-c2cc(C)c(F)c1c2` (stereo partly shown), the ring closure, isolated yield in data set [1] (from CCOC(=O)C[C@H](N)c1cc(-c2cn(C)nc2Oc2ccc(F)c(C(C(=O)O)n3cc(CCN4CC(F)C4)c(C(F)(F)F)cc3=O)c2)cc(C)c1F, amide bond, EDCI/HOBt/DIEA, MeCN, 32.6 mM, 60.0 °C, 6.0 h) amounted to 29.9%.

On to `CCOC(=O)C[C@@H]1NC(=O)C(n2cc(CCN3CC(F)C3)c(C(F)(F)F)cc2=O)c2cc(ccc2F)Oc2nn(CC3CC3)cc2-c2cc(C)c(F)c1c2` (stereo partly shown), for which the ring closure, isolated yield in data set [1] (from CCOC(=O)C[C@H](N)c1cc(-c2cn(CC3CC3)nc2Oc2ccc(F)c(C(C(=O)O)n3cc(CCN4CC(F)C4)c(C(F)(F)F)cc3=O)c2)cc(C)c1F, amide bond, EDCI/HOBt/DIEA, MeCN, 45.0 mM, 60.0 °C, 2.0 h) stood at 14.6%.

As to `CCOC(=O)C[C@@H]1NC(=O)C(n2cc3ccccc3cc2=O)c2cc(ccc2F)Oc2cccc(C)c2-c2cc(C)c(F)c1c2` (stereo partly shown), the ring closure, isolated yield in data set [1] (from CCOC(=O)C[C@H](NC(=O)C(c1cc(Br)ccc1F)n1cc2ccccc2cc1=O)c1cc(-c2c(C)cccc2O)cc(C)c1F, ether bond, CuI/(1R,2R)-N,N'-dimethylcyclohexane-1,2-diamine/K2CO3, dioxane, 58.0 mM, 100.0 °C, 2.0 h) amounted to 33.9%.

With `Cc1cccc2c1-c1cc(c(C)s1)[C@H](CC(=O)O)NC(=O)[C@@H](n1cc(CCN3CC(F)C3)c(C(F)(F)F)cc1=O)c1cc(ccc1F)O2` (single isomer, unassigned) [Example 72], the EC50 (in general, the concentration at which the effect is half-maximal) in data set [2] was found to be 0.016 µM.

Consider `Cc1cccc2c1-c1cc(C3CC3)c(F)c(c1)[C@H](CC(=O)O)NC(=O)[C@@H](n1ccc(C(F)(F)F)cc1=O)c1cc(ccc1F)O2` (single isomer, unassigned) [Example 73], for which, in data set [2], the EC50 was determined as 0.027 µM.

As for `Cc1ccc2cc1[C@H](n1cc(CCN3CC(F)C3)c(C(F)(F)F)cc1=O)C(=O)N[C@@H](CC(=O)O)c1cc(cc(C)c1F)-c1c(C)cccc1OC2` (single isomer, unassigned) [Example 74], the EC50 in data set [2] is 0.02 µM.

`Cc1cccc2c1-c1cc(c(C)s1)[C@H](CC(=O)O)NC(=O)[C@@H](n1cc(CCN3CC(F)C3)c(C(F)(F)F)cc1=O)c1cc(ccc1F)CO2` (single isomer, unassigned) [Example 75]: the EC50 in data set [2] was greater than 0.1 µM.

For `Cc1cc2cc(c1F)[C@H](CC(=O)O)NC(=O)[C@@H](n1ccc(C(F)(F)F)c(Cl)c1=O)c1cc(ccc1F)Oc1cccc(C)c1-2` (single isomer, unassigned) [Example 76], the EC50 in data set [2] was 0.039 µM.

On to `Cc1cc2c(F)c(c1F)[C@H](CC(=O)O)NC(=O)[C@@H](n1cc(CCN3CC(F)C3)c(C(F)(F)F)cc1=O)c1cc(ccc1F)Oc1cccc(C)c1-2` (single isomer, unassigned) [Example 77], for which the EC50 in data set [2] turned out to be 0.015 µM.

In the case of `Cc1cccc2c1-c1cc(C3CC3)c(F)c(c1)[C@H](CC(=O)O)NC(=O)[C@@H](n1ccc(C(F)(F)F)cc1=O)c1cc(ccc1F)CO2` (single isomer, unassigned) [Example 78], the EC50 in data set [2] was 0.36 µM.

For the molecule `COc1cc(C)c2c(c1)Oc1ccc(F)c(c1)[C@H](n1ccc(C(F)(F)F)cc1=O)C(=O)N[C@@H](CC(=O)O)c1cc-2cc(C)c1F` (single isomer, unassigned) [Example 80], the EC50 in data set [2] amounted to 0.058 µM.

For the molecule `Cc1cccc2c1-c1ccc(F)c(c1)[C@H](CC(=O)O)NC(=O)[C@@H](n1cc(CCN3CC(F)C3)c(C(F)(F)F)cc1=O)c1cc(ccc1F)O2` [Example 32, 2-((5S,8S)-1^4,4^4-difluoro-5-(5-(2-(3-fluoroazetidin-1-yl)ethyl)-2-oxo-4-(trifluoromethyl)pyridin-1(2H)-yl)-2^6-methyl-6-oxo-3-oxa-7-aza-1,4(1,3),2(1,2)-tribenzenacyclooctaphane-8-yl)acetic acid], the EC50 in data set [2] stood at 0.00095 µM.

In the case of `Cc1cc2cc(c1F)[C@H](CC(=O)O)NC(=O)[C@@H](n1cc(CCN3CC(F)C3)c(C(F)(F)F)cc1=O)c1cc(cc(Cl)c1F)Oc1cccc(C)c1-2` [Example 38, [(14S,17S)-11-chloro-12,19-difluoro-14-{5-[2-(3-fluoroazetidin-1-yl)ethyl]-2-oxo-4-(trifluoromethyl)pyridin-1-yl}-3,20-dimethyl-15-oxo-8-oxa-16-azatetracyclo[16.3.1.1^{9,13}.0^{2,7}]tricosa-1(22),2(7),3,5,9,11,13(23),18,20-nonaen-17-yl]acetic acid], the EC50 in data set [2] came to 0.0013 µM.

Regarding `Cc1cccc2c1-c1cc(c(F)c(C(F)(F)F)c1)[C@H](CC(=O)O)NC(=O)[C@@H](n1cc(Cl)c(C(F)(F)F)cc1=O)c1cccc(c1)O2` [Example 39, [(17S)-14-[5-chloro-2-oxo-4-(trifluoromethyl)pyridin-1-yl]-19-fluoro-3-methyl-15-oxo-20-(trifluoromethyl)-8-oxa-16-azatetracyclo[16.3.1.1^{9,13}.0^{2,7}]tricosa-1(22),2(7),3,5,9,11,13(23),18,20-nonaen-17-yl]acetic acid], the EC50 in data set [2] is greater than 0.1 µM.
